Measurements taken from PMC7021098 (Journal of Antimicrobial Chemotherapy, 2019).
Like-named read-outs stand apart in the source and are kept apart here. Marks after values point to notes of the source that are not given here.

Assays:
[1] = Cabotegravir and rilpivirine concentrations in plasma and CSF by HPLC-MS/MS; format: in vivo, HIV-infected adults; conditions: for Total plasma drug / Total CSF drug / Unbound plasma drug / Total CSF/total plasma (%) / Kp: median (minimum–maximum); for Total CSF/total plasma (%) / Kp: paired samples; for Kp: human, CSF/plasma, intramuscular, Total CSF/total plasma (%)
[2] = system: WT HIV-1; conditions: cited from earlier work; for in vitro EC50 for WT HIV-1: ref 10 (cabotegravir), 37 (rilpivirine)
[3] = system: plasma proteins; conditions: cited from earlier work
[4] = Phase 1, monthly IM LA, cited from earlier work
[5] = system: P-glycoprotein; conditions: in vitro; ref 42 (cabotegravir), 43 (rilpivirine); cited from earlier work
[6] = system: breast cancer resistance protein (BCRP); conditions: in vitro; ref 42 (cabotegravir), 43 (rilpivirine); cited from earlier work
[7] = cited from earlier work; for reported CSF distribution: other NNRTIs
[8] = cited from earlier work
[9] = Q4W, n = 3, 7 ± 3 days after injection
[10] = Q8W, n = 15, 7 ± 3 days after injection

Compound	median CSF level, fold above in vitro EC50 for WT HIV-1 ([1]; Q4W group) [fold]	Total CSF/total plasma (%) ([1]; Q4W, n = 3)	median CSF level, fold above in vitro EC50 for WT HIV-1 ([1]; Q8W group) [fold]	Total CSF/total plasma (%) ([1]; Q8W, n = 13)	Kp ([1]; Q4W, n = 3)	Kp ([1]; Q8W, n = 13)	in vitro EC50 for WT HIV-1 [2] [ng/mL]	bound to plasma proteins [3] [%]	time to maximum plasma concentrations [4]	substrate for P-glycoprotein [5]	substrate for breast cancer resistance protein (BCRP) [6]	protein binding in CSF [8]	reported CSF distribution [7] [%]	also measured
C[C@H]1CO[C@@H]2Cn3cc(C(=O)NCc4ccc(F)cc4F)c(=O)c(O)c3C(=O)N12 [cabotegravir]	127	0.344 (0.312–0.421) %	106	0.304 (0.218–0.449)^c %	0.003	0.0034	0.10	> 99.8	approximately 1 week	substrate	substrate			Total plasma drug ([1]; Q4W (cabotegravir LA 400 mg + rilpivirine LA 600 mg IM every 4 weeks), n = 3, 7 ± 3 days after injection): 3.02 (2.37–5.10) μg/mL; Total CSF drug [1, 9]: 0.0127 (0.0082–0.0159) μg/mL; Unbound plasma drug [1, 9]: 0.0019 (0.0014–0.0698) μg/mL; Total plasma drug ([1]; Q8W (cabotegravir LA 600 mg + rilpivirine LA 900 mg IM every 8 weeks), n = 15, 7 ± 3 days after injection): 3.92 (1.30–6.41) μg/mL; Total CSF drug ([1]; Q8W, n = 13, 7 ± 3 days after injection): 0.0106 (0.0053–0.0245)^c μg/mL; Unbound plasma drug [1, 10]: 0.0047 (0.0007–0.0220) μg/mL; EC50 ([2]; read-out: EC50 for WT HIV-1 clade B): 250 pM; maximum plasma concentrations (geometric mean) ([4]; after the fourth dose of cabotegravir): 2.2 to 4.4 µg/mL
Cc1cc(/C=C/C#N)cc(C)c1Nc1ccnc(Nc2ccc(C#N)cc2)n1 [rilpivirine]	6	1.32%	7	1.07%	0.0107	0.0132	0.27	99.7	approximately 1 week	not a substrate	not a substrate			Total plasma drug [1, 9]: 134 (83.0–187) ng/mL; Total CSF drug ([1]; Q4W, n = 3): 1.67 (1.40–2.47) ng/mL; Total CSF/total plasma (%) ([1]; Q4W, n = 3, listed as Rilpivirine): 1.32 (1.25–1.69) %; Total CSF/total plasma (%) ([1]; Q8W, n = 13, listed as Rilpivirine): 1.07 (NQ to 1.52)^c^, d %; Total plasma drug [1, 10]: 192 (91.7–378) ng/mL; plasma concentration in the participant with non-quantifiable CSF level ([1]; single participant): 117 ng/mL; CSF concentration in the one participant with non-quantifiable level ([1]; single participant, Q8W, not quantifiable): under 1 ng/mL; maximum plasma concentrations (geometric mean) ([4]; after the second dose of rilpivirine): 0.126 to 0.168 µg/mL; CSF-to-plasma ratio ([7]; 25 mg administered orally for 60 days): 1.4%
O=C(NCc1c(F)cc(F)cc1F)c1cn2c(c(O)c1=O)C(=O)N1[C@H]3CC[C@H](C3)O[C@@H]1C2 [bictegravir]												predominantly protein-bound		
Cc1cc(C#N)cc(C)c1Oc1nc(Nc2ccc(C#N)cc2)nc(N)c1Br [etravirine]												predominantly protein-bound	1	
C[C@@H]1CCO[C@H]2Cn3cc(C(=O)NCc4ccc(F)cc4F)c(=O)c(O)c3C(=O)N12 [dolutegravir]														CSF inhibitory quotient (ratio of drug concentration to EC50), median [7]: 66–90 fold; CSF-to-plasma ratio ([7]; oral administration at 50 mg once daily): 0.41%
O=C1Nc2ccc(Cl)cc2[C@@](C#CC2CC2)(C(F)(F)F)O1 [efavirenz]													0.5	
